Data reported in PMC8080595, “Discovery of a novel RORγ antagonist with skin-restricted exposure for topical treatment of mild to moderate psoriasis” (Scientific Reports, 2021).
Read-outs that look alike come from different tables or passages of the source. Values belong to the compound of their own block, whether it stands above or below them.

Columns and labels:
[1] = Liver microsomal stability, rat; assay type: in vitro ADME; conditions: liver microsomes, pH 7.4, read-out: Liver microsomal stability, t1/2, Rat
Method: (§1) The compound was mixed with 0.5 mg/ml human liver microsome (Thermal Fisher) at a final concentration of 1 µM in 100 mM potassium phosphate buffer, pH 7.4. The reactions were initiated by the addition of 1 mM NADPH. Samples in duplicate were incubated at 37 °C with mixing. 100 µL aliquots were transferred after 0, 5, 10, 30, 45, 60 minutes to a new tube with 300 µL acetonitrile, incubated on ice for 30 minutes, centrifuged at 1800×g at 4 °C for 10 minutes. The supernatants were transferred to glass vials subjected to LC/MS analysis. Peak areas were measured to calculate half-life according to the formula t1/2 = − 0.693/slope of linear regression analysis of ln [concentration] versus incubation time. Similar methods were applied to access mouse and rat liver microsomal stability of the compounds.

[2] = test system: IL-17 secretion from human PBMCs; assay: Human IL-17 production assay using human PBMC; assay type: cell-based; conditions: cytostim stimulation 72 h
Method: To confirm cellular on-target effects, we investigated the inhibition of selected RORγ antagonists on RORγ-regulated IL-17 secretion using human PBMC. Human IL-17-producing cells were readily formed following cytostim stimulation. In human PBMC stimulated with cytostim for 72 h, differentiation of Th17 cells was confirmed by increased secretion of IL-17 (291 pg/mL) in cell culture supernatant compared to basal level of IL-17 (20 pg/mL IL-17 without cytostim stimulation), […] of IL-17 secretion.
Human PBMCs (Zenbio) in TexMACS media were stimulated by cytostim (Miltenyi) for 72 h following the vendor's instruction. Human IL-17A in cell culture supernatant was measured using AlphaLISA human IL-17A Biotin-free detection kit (Perkin Elmer) according to the manufacturer’s protocol.

[3] = Liver microsomal stability, human; assay type: in vitro ADME; conditions: pH 7.4
Method: as §1

RORγ LBD = molecular target: T1, RORγ LBD (Homo sapiens, UniProt P51449); assay: LanthaScreen TR-FRET human RORγ coactivator assay; assay type: biochemical; conditions: antagonist mode, read-out: Binding of RORγ LBD, IC50
T1 construct: The assay was performed with GST-tag RORγ LBD (25 ng/reaction, Creative Biomart); purchased Creative Biomart
T1 sequence (P51449 269-508 limits assumed): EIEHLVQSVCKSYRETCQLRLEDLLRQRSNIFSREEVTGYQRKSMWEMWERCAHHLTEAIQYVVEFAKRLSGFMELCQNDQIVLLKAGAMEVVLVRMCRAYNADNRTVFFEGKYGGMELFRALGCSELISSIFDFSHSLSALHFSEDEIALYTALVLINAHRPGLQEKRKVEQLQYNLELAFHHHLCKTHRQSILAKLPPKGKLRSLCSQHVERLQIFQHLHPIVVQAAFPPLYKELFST
Source text: In LanthaScreen TR-FRET RORγ coactivator assay, the RORγ LBD was constitutively active and the coactivator peptide (fluorescein-D22) was recruited in the absence of ligand, or compound (Fig. 2a). The binding of an antagonist to RORγ LBD causes a conformational change of the receptor, leading to a decrease in the affinity of the receptor for the coactivator peptide. The separation of the fluorescently labeled coactivator peptide from RORγ LBD from the receptor with the terbium-labeled antibody causes a decrease in the TR-FRET signal compared to those without compound. The assay was validated by detecting the ligand-independent recruitment of coactivator peptide in the presence or absence of RORγ LBD (2.5- to 3-fold assay window). Effects of the key compounds of the novel chemotype in Fig. 1, were tested in LanthaScreen TR-FRET RORγ coactivator assay.
The assay was performed with GST-tag RORγ LBD (25 ng/reaction, Creative Biomart), 0.6 μM Fluorescein-D22 coactivator peptide and 8 nM Tb anti-GST antibody (Invitrogen) at room temperature for 60 minutes. The fluorescent signals were measured with 520 nm emission and 495 nm excitation on Tecan Infinite. The data were calculated using DMSO control as 0% inhibition and non-protein control as 100% inhibition. IC50 values were calculated using non-linear regression analysis of GraphPad Prism in all assays.

Oral PK in SD rats = assay type: in vivo; conditions: male, rat, plasma; for AUC: read-out: Exposure in SD Rat, AUC; for Cmax: read-out: Exposure in SD Rat, Cmax; for half-life: read-out: Exposure in SD Rat, t1/2 (converted)
Method: Compounds were dissolved in 5% DMSO, 5% tween 80 and then added 90% saline. Male SD rats were dosed with the compound via oral (2 mg/kg or 5 mg/kg) routes, respectively after fasting overnight. Blood of the animals were collected at indicated time post dosing. Blood samples were then prepared for plasma and analyzed for the compounds using validated LC/MS assays. The experimental protocol used in this study was approved by IACUC. The experiments were conducted in accordance with the Guiding Principles for the Care and Use of Laboratory Animals and complied with the ARRIVE guidelines.

[4] = Liver microsomal stability, mouse; assay type: in vitro ADME; conditions: liver microsomes, pH 7.4, read-out: Liver microsomal stability, t1/2, Mouse
Method: as §1

[5] = test system: IMQ-induced mouse psoriasis-like inflammation model; set-up: method as in PMID 26870941; conditions: 1% GSK2981278 ointment vs placebo + IMQ control; cited from earlier work
psoriasis [6] = test system: psoriasis; set-up: method as in PMID 29150844; conditions: ointment 0.03%, 0.1%, 0.8% and 4%, all doses; cited from earlier work
psoriasis [7] = test system: psoriasis; set-up: method as in PMID 27852111; conditions: oral, phase 2a, cited from earlier work
[8] = human, liver microsomes, 1 µM compound, 0.5 mg/ml microsome, NADPH, 37 °C, read-out: Liver microsomal stability, t1/2, Human

- half-life at 1 µM [1]: > 120 min
- half-life at 1 µM [3, 8]: > 120 min
- IC50 (RORγ LBD): 62 ± 18 nM
- AUC (Oral PK in SD rats; 5 mg/kg oral): 6980 ng·h/mL
- Cmax (Oral PK in SD rats; 5 mg/kg oral): 446 ng/mL
- half-life (Oral PK in SD rats; 5 mg/kg oral): 768 min
SMILES: CCS(=O)(=O)c1ccc(Cc2nc3c(Cl)c(-c4ccccc4OC(F)(F)F)c(Cl)cc3[nH]2)c(Cl)c1 [Compound 1, 4,6-dichloro-2-(2-chloro-4-(ethylsulfonyl)benzyl)-5-(2-(trifluoromethoxy)phenyl)-1H-benzo[d]imidazole]
- EC50 [2]: 30 ± 10 nM

- half-life at 1 µM [1]: 34.5 min
- half-life at 1 µM [3, 8]: 18.5 min
- half-life at 1 µM ([3]; range across human, rat and mouse liver microsomes, read-out: t1/2 in human, rat and mouse liver microsome stability assays): 7.8 to 34.5 min
- half-life at 1 µM [4]: 7.8 min
- IC50 (RORγ LBD): 40 ± 27 nM
- AUC (Oral PK in SD rats; 2 mg/kg oral): 352 ng·h/mL
- Cmax (Oral PK in SD rats; 2 mg/kg oral): 70 ng/mL
- half-life (Oral PK in SD rats; 2 mg/kg oral): 120 min
SMILES: CCS(=O)(=O)c1ccc(Cc2nc3c(Cl)c(N4CCC(F)(F)CC4)c(Cl)cc3[nH]2)cc1 [Compound 2, 4,6-dichloro-5-(4,4-difluoropiperidin-1-yl)-2-(4-(ethylsulfonyl)benzyl)-1H-benzo[d]imidazole]
- EC50 [2]: 46 ± 2 nM

SMILES: CCc1ccc(N(CC(C)C)S(=O)(=O)c2ccc(OCC3CCOCC3)c(CO)c2)cc1 [GSK2981278]
- reduction of epithermal thickness [5]: 23%
- Infiltrate thickness (psoriasis [6]): not changed

SMILES: CCS(=O)(=O)c1ccc(CNC(=O)c2cnc3c(c2)CN(C[C@H]2CC[C@H](C(F)(F)F)CC2)[C@H]3C(C)C)nc1 [VTP43742]
- efficacy in psoriatic patients (psoriasis [7]; four-week period): clear signal of efficacy
- transaminase (psoriasis [7]): elevations of reversible transaminase
